This is an account of results in US20080125405A1, “Composition for treating or preventing olfactory disorder” (Samsung Life Public Welfare Foundation Samsung Medical …, priority 2006, published 2008).

The test system of assay [1] is olfactory epithelial cells. As to the kind of experiment: Columnar arrangement grade of olfactory epithelial cells after 3-methylindole damage, H&E staining. Format: in vivo, Sprague-Dawley rats. Conditions: grade 1 (not arranged) to 3 (well arranged), drug 10 mg/kg oral daily. As to the method:
(§1) To collect the olfactory tissues of the test group, the reference group and the control group, the test animals of the three groups were sacrificed on the fourth day, the seventh day, the fourteenth day and the twenty eighth day after the treatment with 3-methylindole. Six test animals were sacrificed each time.
(§2) H&E staining of the tissue obtained from Example 1-2 was performed by treating the paraffin block cut into a thickness of 4 μm via the above trimming and microtomy steps of Example 1-2 with a hematoxylin solution (Zymed, USA) and an eosin solution (eosin Y, Sigma, USA). More particularly, the H&E staining was performed as follows.
(§3) The paraffin block cut into a thickness of 4 μm as described in Example 1-2, i.e. the tissue specimen, was deparaffinized by repeating a xylene treatment cycle (dipping the tissue into 100% xylene twenty times) three times, was subjected to rehydration and staining with a hematoxylin solution for 5 minutes, and then was washed thoroughly with flowing water for 15 minutes. The washed tissue specimen was subjected to differential staining in 0.25% eosin solution for 40 seconds. After the differential staining, the tissue specimen was treated with an increasing amount of alcohol from a lower concentration to a higher concentration (i.e. 50%, 70%, 95% and 100% alcohol) for 1 hour at each concentration to further carry out dehydration. The dehydrated tissue specimen was passed through xylene three times and was encapsulated by covering it with a cover slide.
(§4) To observe damage to or recovery of the olfactory mucous membrane epithelia, the heights and arrangements of the epithelia in the test groups were compared to each other after carrying out H&E staining. To perform the comparison of the heights of the olfactory epithelia, the height of the olfactory epithelium in each test group was measured by taking a photograph of the olfactory mucous membrane at both upper sides of the nasal septum at a magnitude of 200×, wherein the average height of the olfactory mucous membrane epithelium was determined by using an Image J Program (NIH). Also, to perform the comparison of the heights of the olfactory epithelia, columnar arrangement corresponding to the arrangement of the olfactory epithelial cells in each test group was determined.
Herein, as the grade number increases, a higher degree of regeneration is made in the olfactory mucous membranes.
Additionally, columnar arrangement of the olfactory epithelial cells in each group was determined. The columnar arrangement of each group is shown in FIG. 3 as a grade evaluated according to the above criteria.

For the next assay, the system named is olfactory epithelium. As to the kind of experiment: Height (thickness) of olfactory epithelium after 3-methylindole damage, H&E staining. It counts as in vivo, Sprague-Dawley rats. The following applies: rats, 3-methylindole 150 mg/kg i.p., drug 10 mg/kg oral daily; for height of olfactory epithelium: time point not printed (first sampling, fourth day), mean±SD. On the procedure: as §1, §2, §3, §4
After measuring the heights of the olfactory epithelia, statistical analysis of the results was performed by using the above mentioned Anova test with Bonferroni's correction.

In a further assay the test system is olfactory receptor cells. Conditions: grade 0 to 4, higher = more regeneration, drug 10 mg/kg oral daily.
Setting [2] is: fourteen days after 3-methylindole.
[3] abbreviates: seven days after 3-methylindole.
Setting [4] is: twenty eight days after 3-methylindole.

Where two headings read alike, the source gives them in different places.

Description for olfactory receptor cells: As test animals, female white Sprague-Dawley rats (Orient Co., Korea) having a body weight of 100-150 g were used. […] The test animals were raised in raising chambers for one week.
The test animals in the test group and the reference group were subjected to intraperitoneal injection of 150 mg/kg (body weight of each test animal) of 3-methylindole (3-MI) so that their olfactory epithelia were damaged. […] To the test animals in the reference group, 10 mg/kg (body weight of each test animal) of a steroid formulation, i.e. prednisolone, dissolved in 1 cc of saline was orally administered according to the same protocol as the test group. Additionally, to the test animals in the control group, the same amount (1 cc) of saline was administered after the olfactory epithelia were damaged, according to the same protocol as the test group.
To observe the distribution of the olfactory receptor cells, immunoreactivity to protein gene product 9.5 (PGP 9.5) known to exist specifically in the olfactory nerve cells was investigated.
The immunohistological staining was performed by using a Histostain-Plus kit (Zymed, San Francisco, USA). The paraffin block cut into a thickness of 4 μm, i.e. the tissue specimen was positioned on a slide coated with poly-L-lysine and was subjected to rehydration by using a decreasing amount of alcohol gradually from 100% alcohol to distilled water. The rehydrated tissue specimen was introduced into heated 10 mM citrate buffer (pH 5.0, Sigma, USA) and was further heated in a microwave oven twice, for 5 minutes each time. Next, the heated tissue specimen was removed from the microwave oven, cooled in the 10 mM citrate buffer for 20 minutes, washed with distilled water, allowed to react with 0.05M Tris-HCl buffer (Tris buffered saline, TBS) containing 3% H2O2 added thereto for 20 minutes to remove the activity of the endogenous peroxidase, and then was washed with 0.05M Tris-HCl buffered saline three times. After removing the activity of the endogenous peroxidase, the washed tissue specimen was treated with 0.1% Triton X-100 (USB, Ohio, USA) for 15 minutes, and further washed with 0.05M Tris-HCl buffered saline three times. After the treatment with 0.1% Triton X-100, the washed tissue specimen was allowed to react with a blocking reagent (10% normal goat serum) for 30 minutes to inhibit non-specific antigen-antibody reactions. […]

As for `CC(C)c1c(C(=O)Nc2ccccc2)c(-c2ccccc2)c(-c2ccc(F)cc2)n1CC[C@@H](O)C[C@@H](O)CC(=O)O` [atorvastatin], the “average grade of columnar arrangement of olfactory epithelial cells” value in assay [1] (four days after 3-methylindole) amounted to 1.0±0.5; in assay [1] (setting [2]), 1.7±0.7; in assay [1] (setting [3]), 1.7±0.3; in assay [1] (setting [4]), 2.8±0.5. For the same compound, the “thickness of olfactory epithelium” value with olfactory epithelium (setting [2]) was 58.6±16.3 μm; with olfactory epithelium (setting [3]) it was 56.1±26.9 μm; in the assay with olfactory epithelium (setting [4]), 63.9±20.2 μm. Moreover, the “height of olfactory epithelium” value in the assay on olfactory epithelium was 17.4±15.1 μm.
Turning to `C[C@]12C=CC(=O)C=C1CC[C@@H]1[C@@H]2[C@@H](O)C[C@@]2(C)[C@H]1CC[C@]2(O)C(=O)CO` [prednisolone], the “average PGP 9.5 immunostaining grade” value with olfactory receptor cells (four days after 3-methylindole) worked out at 0.5±0.67; in the assay with olfactory receptor cells (setting [2]) it was 2.42±1.38; in the assay on olfactory receptor cells (setting [3]), 0.92±0.79; in the assay on olfactory receptor cells (setting [4]) it was 1.75±1.22. Further, the “average grade of columnar arrangement of olfactory epithelial cells” value in assay [1] (four days after 3-methylindole) is recorded as 0.9±0.3; in assay [1] (setting [2]) it was 1.8±0.5; in assay [1] (setting [4]), 2.5±0.4. The “thickness of olfactory epithelium” value in the assay on olfactory epithelium (setting [2]) is 60.5±11.6 μm; in the assay on olfactory epithelium (setting [3]), 21.1±13.4 μm; in the assay with olfactory epithelium (setting [4]), 72.2±21.8 μm. For the same compound, in the assay with olfactory epithelium, the “height of olfactory epithelium” value stood at 9.5±4.7 μm.
